This is an account of results in patent publication EP4640213A1, “ORAL PHARMACEUTICAL PREPARATION COMPRISING SODIUM-GLUCOSE COTRANSPORTER-2 INHIBITOR AND ANGIOTENSIN II RECEPTOR BLOCKER” (THPharm Corp., priority 2022, dated 2024).

A short description of series [1]: Drug-drug compatibility test under accelerated stability conditions. The format is physicochemical. How it is done: Specifically, after storing a mixture of ARB and SGLT-2 inhibitor for 4 weeks under accelerated stability test conditions (40 ± 2°C/75 ± 5% relative humidity), changes in the contents of each ingredient and flexible substance and changes in properties (color, agglomeration, etc.) were analyzed. Olmesartan, Valsartan, and Telmisartan were used as ARBs, and Empagliflozin, Dapagliflozin (Dapagliflozin propanediol monohydrate), and Canagliflozin were used as SGLT-2 inhibitors. [Table 4] […] To observe the properties and viscosity of the main ingredients, 10 g of the mixtures of ARBs and SGLT-2 inhibitors stored for 1, 2, 3, and 4 weeks were taken and exposed to 100 ml of purified water at room temperature for 10 minutes, and then the properties and viscosity were identified.

In series [2] the test system is angiotensin converting enzyme (ACE). The series is described as follows: ACE mRNA expression (RT-PCR) in LPS inflammation-induced H9c2 cells. Particulars: alone administration, FIGS. 5 and 6. The format is cell-based, rat. How it is done: Specifically, H9c2 cells as a […] cardiac cell line were obtained and used from the Korea Cell Line Bank (KCLB 40071, Korea) and incubated and prepared in a DMEM medium supplemented with 10% FBS and 1% antibiotic-antimycotic (10 units/ml penicillin, 100 µg/ml streptomycin, 0.25 µg/ml amphotericin) under 37°C and 5% CO2 conditions.
To confirm the effect on ACE activity, the prepared H9c2 cells were treated with 2.5 µg/ml of Lipopolysaccharide (LPS), which was 2.5 times more than the amount used in conventional inflammation-related experiments, to induce inflammation, thereby setting the optimized conditions for confirming ACE expression. LPS inflammation-induced H9c2 cells were treated with 10, 25, and 50 µM Telmisartan or olmesartan, respectively, and the H9c2 cells were harvested for ELISA assay. The harvested cells were treated with 1 ml of an RIPA buffer and stirred at 4°C for 30 minutes to extract proteins. Thereafter, the proteins were centrifuged at 4°C and 10,000 rpm for 20 minutes, and the supernatant was transferred to a sterilized tube and stored at - 80°C for use in the ELISA assay.
Specifically, LPS inflammation-induced H9c2 cells in Experimental Example 1-2 were treated with 10 or 25 µM Telmisartan and 10 or 50 µM olmesartan, and then treated with 200 µl of chloroform together with 1 ml of TRIZol (Sigma, USA), gently mixed, and separated for 10 minutes, and then centrifuged at 4°C and 10,000 rpm for 10 minutes. After centrifugation, only the supernatant from the tube was taken and transferred to a new sterile tube, and the supernatant was treated with 500 µl of isopropanol to precipitate RNA. The precipitated RNA was centrifuged at 4°C, 10,000 rpm for 10 minutes, and then the supernatant except for the pellets in the tube was fully removed, and the RNA pellets were treated with 500 µl of 75% ethyl alcohol and thoroughly washed. The washed pellets were centrifuged at 4°C, 10,000 rpm for 5 minutes, and then the supernatant except the pellets was fully removed. The tube containing the pellets from which the supernatant had been cleanly removed was treated with diethyl pyrocarbonate (DEPC)-water and stored at - 80°C for use in an RT-PCR experiment.
RT-PCR was performed by synthesizing cDNA from mRNA using an RT-PCR kit containing DNA polymerase, buffer, dNTP, and tracking dye, and then using ACE primers in Table 1 under the conditions in Table 2 for 35 cycles. The PCR products were electrophoresed on a […] agarose gel, identified using a UV transilluminator, and expressed as normalized to GAPDH for quantitative comparison.
In order to confirm the effect of each combination or single substance on the mRNA expression of ACE, the experimental samples in Table 3 were treated to H9c2 cells induced with LPS inflammation in Experimental Example 1-2, respectively, and then the mRNA expression of ACE was evaluated in the same manner as in Experimental Example 1-3.

Series [3] is described as follows: Single oral administration pharmacokinetic test. Particulars: beagle dogs.
Protocol: The control and test drugs were administered orally once by a single tablet, and were crossed over (4 × 4 cross over) four times at one-week intervals. Fasting was performed from 5 to 6 pm the day before administration. The control and test drugs were administered into the tongue root, and then administered with approximately 15 ml of water, and feed was provided approximately 4 hours after administration. Blood was collected at 0 (blank), 0.25, 0.5, 0.75, 1, 1.5, 2, 3, 4, 5, 6, 8, 12, and 24 hours (14 times) after administration of the control and test drugs, and left by a 7-day drug-free period.
The nature of series [4]: 4-week repeated oral administration toxicity. The format is in vivo, Sprague-Dawley rats. Conditions: oral daily for 4 weeks; blood test. How it is done: During the test, general symptom observation, blood test, and body weight measurement were performed, and after the observation period ended, the rats were euthanized and autopsied.
For series [5] the following is noted: in the presence of Telmisartan.
The subject of the next series is A549 cells. In words: Cell survival rate (MTT) in A549 cells. The format is cell-based. Particulars: up to a concentration of 25 µM, 24 and 48 hours, FIGS. 1A, 1B. As to the method:
(§1) To screen angiotensin II receptor blockers for use in combinations of angiotensin II receptor blockers (ARBs) and sodium-glucose cotransporter-2 (SGLT-2) inhibitors for the treatment of heart failure, cell survival rates were evaluated.
(§2) Specifically, A549 cells were obtained from the Korean Cell Line Bank (KCLB) and subcultured using a RPMI-1640 medium supplemented with 10% fetal bovine serum (FBS) and 1% Penicillin, and MDCK cells were obtained from ATCC and subcultured using a DMEM medium supplemented with 10% FBS. 200 µl each of the A549 cells and MDCK cells incubated in an incubator under 37°C and 5% CO2 conditions were dispensed at 2 × 10^4 cells/well in a 96-well plate, and then a control group was treated with 100 µl of the medium, and experimental groups were treated with 1.25, 25, 50, and 100 µM of Telmisartan or olmesartan, respectively. After 24 and 48 hours, all of the wells were treated with 50 µl each of a 2 mg/ml MTT reagent and incubated in an incubator for 3 hours, and then each well was added with […] of DMSO, wrapped in foil, stirred for 30 minutes at room temperature, and the absorbance was measured at 570 nm to obtain the cell survival rate.

The test system of a further series is MDCK cells. The series is described as follows: Cell survival rate (MTT) in MDCK cells. Particulars: up to a concentration of 25 µM, 24 and 48 hours, FIGS. 2A, 2B. The format is cell-based. How it is done: as §1, §2
Where [6] appears, read: ARB ingredient (first value of cell), Acceleration 1 week, 40 ± 2°C/75 ± 5% relative humidity.
Setting [7] is: ARB ingredient (first value of cell), Acceleration 2 week.
Where [8] appears, read: ARB ingredient (first value of cell), Acceleration 3 week.
Setting [9] is: ARB ingredient (first value of cell), Acceleration 4 week.
Where [10] appears, read: ARB ingredient (first value of cell), Initial.
Where [11] appears, read: color, agglomeration, etc., Initial.
Where [12] appears, read: SGLT-2 inhibitor ingredient (second value of cell), Acceleration 1 week.
[13] abbreviates: SGLT-2 inhibitor ingredient (second value of cell), Acceleration 2 week.
Where [14] appears, read: SGLT-2 inhibitor ingredient (second value of cell), Acceleration 3 week.
Where [15] appears, read: SGLT-2 inhibitor ingredient (second value of cell), Acceleration 4 week.
Where [16] appears, read: SGLT-2 inhibitor ingredient (second value of cell), Initial.
Setting [17] is: 15 µM high-concentration groups.
Setting [18] is: low-concentration groups of 2.5 µM to 10 µM.

As to `CCCCC(=O)N(Cc1ccc(-c2ccccc2-c2nnn[nH]2)cc1)[C@H](C(=O)O)C(C)C` [Com. Ex. 20, Valsartan], the content is listed as 99.4% in series [1] (setting [6]); 99.2% in series [1] (setting [7]); 99% in series [1] (setting [8]); 98.7% in series [1] (setting [9]); 99.7% in series [1] (setting [10]). The flexible substance in series [1] (Acceleration 1 week) is 0.1 or more; in series [1] (Acceleration 2 week) it was 0.1 or more; in series [1] (Acceleration 3 week), 0.1 or more; in series [1] (Acceleration 4 week), 0.1 or more; in series [1] (Initial) it was 0.1 or less. Further, the property entry in series [1] (Acceleration 1 week), in series [1] (Acceleration 2 week), in series [1] (Acceleration 3 week), in series [1] (Acceleration 4 week) and in series [1] (setting [11]) was “suitable” each time.
As for `Cc1ccc([C@@H]2O[C@H](CO)[C@@H](O)[C@H](O)[C@H]2O)cc1Cc1ccc(-c2ccc(F)cc2)s1` [Com. Ex. 21, Canagliflozin], the flexible substance in series [1] (Acceleration 1 week) is given as 1.0 or less; in series [1] (Acceleration 2 week), 5.0 or more; in series [1] (Acceleration 3 week), 5.0 or more; in series [1] (Acceleration 4 week), 5.0 or more; in series [1] (Initial) it was 0.1 or less. For the same molecule, the property result is reported as “unsuitable” in series [1] (Acceleration 1 week); “unsuitable” in series [1] (Acceleration 2 week); “unsuitable” in series [1] (Acceleration 3 week); “unsuitable” in series [1] (Acceleration 4 week); “suitable” in series [1] (setting [11]). Also, the content in series [1] (setting [12]) worked out at 95.2%; in series [1] (setting [13]) it was 89.2%; in series [1] (setting [14]) it was 85.2%; in series [1] (setting [15]), 80.1%; in series [1] (setting [16]), 99.5%.
As to `OC[C@H]1O[C@@H](c2ccc(Cl)c(Cc3ccc(O[C@H]4CCOC4)cc3)c2)[C@H](O)[C@@H](O)[C@@H]1O` [Com. Ex. 17, Empagliflozin], the flexible substance is recorded as 1.0 or less in series [1] (Acceleration 1 week); 1.0 or more in series [1] (Acceleration 2 week); 5.0 or more in series [1] (Acceleration 3 week); 5.0 or more in series [1] (Acceleration 4 week); 0.1 or less in series [1] (Initial). Moreover, the property entry in series [1] (Acceleration 1 week) is given as “suitable”; in series [1] (Acceleration 2 week), “suitable”; in series [1] (Acceleration 3 week) it was “unsuitable”; in series [1] (Acceleration 4 week), “unsuitable”; in series [1] (setting [11]), “suitable”. In addition, the content in series [1] (setting [12]) was found to be 97.3%; in series [1] (setting [13]), 95.1%; in series [1] (setting [14]), 85.4%; in series [1] (setting [15]) it was 80.2%; in series [1] (setting [16]) it was 99.9%.
Consider `CCCc1nc2c(C)cc(-c3nc4ccccc4n3C)cc2n1Cc1ccc(-c2ccccc2C(=O)O)cc1` [Comparative Example 14, Telmisartan], for which the “mRNA expression of ACE” value in series [2] (setting [17]) is “decrease below the normal level”.
Turning to `CCOc1ccc(Cc2cc([C@@H]3O[C@H](CO)[C@@H](O)[C@H](O)[C@H]3O)ccc2Cl)cc1` [Dapagliflozin, (1S)-1,5-anhydro-1-C-{4-chloro-3-[(4-ethoxyphenyl)methyl]phenyl}-D-glucitol], in series [3], the “difference in AUCall between groups in the single administration group and the combined administration group” value is 1.0 times. In addition, the “mRNA expression of ACE” value in series [2] (setting [18]) is reported as “did not decrease to a normal level”. Also, in series [4], the GLU result was “decreased”. In series [5] (90% confidence interval 0.93 to 1.12), the “Cmax of Dapagliflozin (T/R ratio)” value is on record as “approximately 1.02 times”. Besides, in series [5] (90% confidence interval 0.97 to 1.03), the “AUC of Dapagliflozin (T/R ratio)” value is “approximately 1.00 times”.
As to `OC[C@H]1O[C@@H](c2ccc(Cl)c(Cc3ccc(O[C@H]4CCOC4)cc3)c2)[C@H](O)[C@@H](O)[C@@H]1O` [Empagliflozin, (1S)-1,5-anhydro-1-C-[4-chloro-3-[[4-[[(3S)-tetrahydro-3-furanyl]oxy]phenyl]methyl]phenyl]-D-glucitol], the “mRNA expression of ACE” value in series [2] (setting [18]) is reported as “did not decrease to a normal level”.
With `CCCc1nc2c(C)cc(-c3nc4ccccc4n3C)cc2n1Cc1ccc(-c2ccccc2C(=O)O)cc1` [Com. Ex. 16, Telmisartan], the content in series [1] (setting [6]) was determined as 100.1%; in series [1] (setting [7]) it was 100%; in series [1] (setting [8]), 100%; in series [1] (setting [9]) it was 100%; in series [1] (setting [10]), 100.1%. Further, the flexible substance in series [1] (Acceleration 1 week), in series [1] (Acceleration 2 week), in series [1] (Acceleration 3 week), in series [1] (Acceleration 4 week) and in series [1] (Initial) was 0.1 or less each time. For the same molecule, the property result in series [1] (Acceleration 1 week), in series [1] (Acceleration 2 week), in series [1] (Acceleration 3 week), in series [1] (Acceleration 4 week) and in series [1] (setting [11]) was “suitable” each time.
With `OC[C@H]1O[C@@H](c2ccc(Cl)c(Cc3ccc(O[C@H]4CCOC4)cc3)c2)[C@H](O)[C@@H](O)[C@@H]1O` [Comparative Example 8, Empagliflozin], the “mRNA expression of ACE” value in series [2] (setting [17]) is recorded as “decrease below the normal level”.
For the molecule `CCCc1nc(C(C)(C)O)c(C(=O)O)n1Cc1ccc(-c2ccccc2-c2nnn[nH]2)cc1` [olmesartan], the cell survival rate entry with A549 cells and in the series with MDCK cells was “no effect on cell survival rate” throughout.
